In publication PMC10075506, “Synthesis and biological evaluation of flavonoid-based IP6K2 inhibitors” (Journal of Enzyme Inhibition and Medicinal Chemistry, 2023):

Tests used:
in vitro = conditions: PAMPA
Source text: Supporting Information Table 1.
artificial membrane permeability assay (PAMPA) as described previously (reference). The apparent permeability
(ranitidine, nadolol, hydrochlorothiazide).
Data are mean ± S.D. (n=3).
Reference: Oh, M.H., Lee, H.J., Jo, S.H., et al. Development of Cassette PAMPA for Permeability Screening. Biol Pharm

recombinant human IP6K2 = molecular target: T1, recombinant human IP6K2 (Homo sapiens, UniProt Q9UHH9); test: ADP-Glo kinase assay, IP6K2; format: biochemical
T1 construct: made in house; host or cells: Sf9 insect cells (baculovirus, pFASTBAC1)
T1 sequence (Q9UHH9 1-426): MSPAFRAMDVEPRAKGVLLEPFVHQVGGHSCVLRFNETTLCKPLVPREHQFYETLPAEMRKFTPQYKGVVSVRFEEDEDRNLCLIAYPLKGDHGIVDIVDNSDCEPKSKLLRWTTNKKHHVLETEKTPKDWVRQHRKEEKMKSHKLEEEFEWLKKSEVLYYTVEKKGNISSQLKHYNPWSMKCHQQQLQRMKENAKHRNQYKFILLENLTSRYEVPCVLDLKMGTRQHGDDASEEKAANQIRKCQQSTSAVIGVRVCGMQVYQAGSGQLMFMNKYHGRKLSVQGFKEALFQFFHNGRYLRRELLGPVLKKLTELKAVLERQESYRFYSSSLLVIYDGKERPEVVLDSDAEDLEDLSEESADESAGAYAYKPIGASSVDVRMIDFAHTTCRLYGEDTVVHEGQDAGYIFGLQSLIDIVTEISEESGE
Experimental: (§1) Inhibition activity of the synthesised compounds against IP6K2 was assessed using ADP-Glo™ Kinase Assay (Promega). Kinase reaction mixtures were first shaking-incubated with individual drugs (diluted in DMSO) for pre-incubation at RT for 15 min, and then ATP was added (final 10 µM) to initiate the reaction. 20 ng of recombinant human IP6K2 protein was used per 15 µL of IP6K2 reaction mixture (50 mM Tris-HCl, pH 6.8, 10 mM MgCl2, 2.5 mM DTT, 0.02% Triton X-100, 10 µM IP6). […] Each detection set was prepared on 96-well (25 µL kinase reaction) as duplicates. Resulting enzyme activity was calculated as following; Activity (%) = ([ADPexperimental]/[ADPDMSO])×100. For IC50 estimation of compounds, kinase assay was prepared on 384-well plates (20 ng of recombinant human IP6K2 protein was used per 5 µL kinase reaction mixture) as duplicates. The final concentrations for IP6K2, IP6, and ATP were 80 nM, 10 μM, and 10 μM, respectively. […] IP6K1 and IP6K3 assays were performed by Liao et al.’s conditions.[25] The final concentrations for IP6K1, IP6, and ATP were 60 nM, 100 μM, and 1 mM, respectively. […] All statistical analyses including IC50 estimation was performed using Prism 7 or Prism 9 (Graphpad Software).
(§2) Full-length human IP6K1, IP6K2, or IP6K3 cDNA was subcloned into pFASTBAC1 plasmid (Gibco) with an N-terminal FLAG epitope sequence, and baculovirus was generated according to the manufacturer’s instructions. Sf9 insect cells were infected with baculovirus and incubated for 72 h. The cells were resuspended in lysis buffer [20 mM Tris–HCl (pH 7.9), 500 mM NaCl, 4 mM MgCl2, 0.4 mM EDTA, 2 mM DTT, 20% glycerol, 1 mM PMSF, and protease inhibitor cocktail (Roche)] and then disrupted with a Dounce homogeniser (pestle A, 3 series of 10 strokes with 10 min interval).

human IP6K3 = molecular target: T2, human IP6K3 (Homo sapiens, UniProt Q96PC2); test: ADP-Glo kinase assay, IP6K3 (Liao et al.'s conditions); format: biochemical; conditions: for IC50: IP6K3 120 nM, ATP 1 mM
T2 construct: made in house; host or cells: Sf9 insect cells (baculovirus, pFASTBAC1)
Experimental: as §1, §2

human IP6K1 = molecular target: T3, human IP6K1 (Homo sapiens, UniProt Q92551); test: ADP-Glo kinase assay, IP6K1 (Liao et al.'s conditions); format: biochemical; conditions: for IC50: IP6K1 60 nM, ATP 1 mM
T3 construct: made in house; host or cells: Sf9 insect cells (baculovirus, pFASTBAC1)
Experimental: as §1, §2

[1] = tested on: IP7 synthesis in human colorectal cell line (HCT116); test: cellular IP7 synthesis in HCT116, HPLC of [3H]inositol-labelled inositol phosphates; format: cell-based; conditions: HCT116, compound 10 μM for 6 h
Experimental: For HPLC analysis, 2 × 10^5 cells/60 mm dish of HCT116 were treated with 60 μCi [^3H] myo-inositol (NET1177001MC, PerkinElmer). After 3 days, soluble inositol polyphosphates from HCT116 (human colorectal cancer cell line) were extracted and analysed as previously described.[39] Intracellular inositol phosphates were extracted with acid extraction buffer (1M HClO4, 3 mM EDTA, and 0.1 mg/mL IP6), and neutralised with neutralisation buffer (1M K2CO3 and 3 mM EDTA). The lysates were centrifuged for 10 min, and the soluble fraction was resolved by HPLC as described earlier.[39] The lipid pellet was lysed with 0.1% Triton X-100 in NaOH overnight. […] Quantity of inositol phosphates was presented as total counts/min (CPM) normalised by total lipid contents.

hIP6K2 = conditions: read-out: IC50 value of quercetin (IP6K2), reported; different IP6K2 enzyme concentration and reaction temperature; cited from earlier work
[2] = final concentration of ATP and IP6 adjusted to 10 μM

T2 sequence (Q96PC2 whole entry): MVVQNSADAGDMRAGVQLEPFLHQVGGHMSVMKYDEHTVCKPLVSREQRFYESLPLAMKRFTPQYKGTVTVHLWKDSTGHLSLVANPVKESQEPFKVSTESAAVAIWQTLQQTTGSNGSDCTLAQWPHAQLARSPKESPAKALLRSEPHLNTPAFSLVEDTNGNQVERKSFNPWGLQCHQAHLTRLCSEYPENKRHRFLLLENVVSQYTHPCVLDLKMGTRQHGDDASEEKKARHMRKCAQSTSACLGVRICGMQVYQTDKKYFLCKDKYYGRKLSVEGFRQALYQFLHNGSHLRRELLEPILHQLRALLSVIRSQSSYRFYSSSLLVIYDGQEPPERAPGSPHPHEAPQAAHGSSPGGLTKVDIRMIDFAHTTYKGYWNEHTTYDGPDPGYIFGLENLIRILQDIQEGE
T3 sequence (Q92551 whole entry): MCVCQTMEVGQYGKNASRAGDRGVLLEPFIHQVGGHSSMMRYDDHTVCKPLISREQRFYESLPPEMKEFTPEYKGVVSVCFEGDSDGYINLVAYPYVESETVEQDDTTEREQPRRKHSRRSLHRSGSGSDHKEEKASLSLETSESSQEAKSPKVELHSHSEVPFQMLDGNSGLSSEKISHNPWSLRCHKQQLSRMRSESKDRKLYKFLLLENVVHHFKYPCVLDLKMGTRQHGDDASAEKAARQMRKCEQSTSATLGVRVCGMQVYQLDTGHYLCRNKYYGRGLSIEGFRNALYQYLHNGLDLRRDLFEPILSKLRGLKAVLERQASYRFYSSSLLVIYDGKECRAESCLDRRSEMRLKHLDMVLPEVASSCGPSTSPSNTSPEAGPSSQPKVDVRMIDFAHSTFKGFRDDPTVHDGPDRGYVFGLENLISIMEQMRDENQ

SMILES | Papp (in vitro) | Permeability class (in vitro) | IC50 (recombinant human IP6K2) | fold more potent IP6K2 inhibition than quercetin (recombinant human IP6K2; IC50 compared with quercetin) | fold more potent than compound 20r (IP6K2) (recombinant human IP6K2; meta -COOH versus para -COOH) | IC50 (human IP6K3; IP6 100 µM) | IP6K3 /IP6K2 (IC50 ratio) (human IP6K3; IP6K3 at ATP 1 mM, IP6 100 µM, IP6K2 at ATP 10 µM, IP6 10 µM) | IC50 ratio of IP6K3/IP6K2 (human IP6K3; [2]) | IC50 (human IP6K1; IP6 100 µM) | IP6K1 /IP6K2 (IC50 ratio) (human IP6K1; IP6K1 at ATP 1 mM, IP6 100 µM, IP6K2 at ATP 10 µM, IP6 10 µM) | IC50 ratio of IP6K1/IP6K2 (human IP6K1; [2]) | cellular IP7 levels [1] | IC50 (hIP6K2)
O=C(O)c1cccc(-c2oc3cc(O)c(O)cc3c(=O)c2O)c1 [Compound 20s, 3–(3,6,7-Trihydroxy-4-oxo-4H-chromen-2-yl)benzoic acid] | < 0.18 ×10⁻⁶ cm/s | Low | 550 ± 1 nM | 5 fold | approximately 7 fold | 3560 nM | 6.47 | 2.32 fold | 2870 nM | 5.22 | 4.65 fold | failed to reduce cellular IP7 levels | –
O=c1c(O)c(-c2ccc(O)c(O)c2)oc2cc(O)cc(O)c12 [Quercetin, 3,3′,4′,5,7-pentahydroxylflavone] | 0.54 ×10⁻⁶ cm/s | Low | – | – | – | 4350 nM | – | – | 1100 nM | – | – | – | […]
